The values that follow come from US20250387481A1, “PRE-TREATED T CELLS FOR USE AS A MEDICAMENT” (STICHTING HET NEDERLANDS KANKER INSTITUUT-ANTONI VAN …, priority 2022, published 2025).

One data set has as its system MMTV-PyMT organoids. The data set is described as follows: Co-culture of pre-treated splenic T cells with MMTV-PyMT organoids (MTT, cleaved-caspase 3). Conditions: CD4 or CD8 T cells pre-treated with docetaxel. Format: cell-based, mouse. Here is the method:
Preparation of T cells: T cells isolated from mouse spleens or from mouse mammary tumors were cultured in Roswell Park Memorial Institute (RPMI) 1640 Medium (Thermo Fisher Scientific, Cat. No. 21875034) containing FBS (10%, Thermo Fisher Scientific, Cat. No. A4766801), Penicillin/streptomycin (10,000 U/ml; Thermo Fisher Scientific, Cat. No. 15140-122), IL2 (Thermo Fisher Scientific, Cat. No. PMC0025), β-mercaptoethanol (50 μmol/L) and Ultraglutamine (2 mmol/L, Lonza, Cat. No. BE17-605E/U1). T cells were kept in 20% O2, 5% CO2 and at 37 degrees Celsius
In order to assess the direct effects of docetaxel on T cell activation for T cells isolated from the spleen, T cells were cultured in the absence of CD3 and CD28 antibodies.
For T cells isolated from mouse mammary tumors, T cells were directly co-cultured with tumor organoids after FACS isolation. For T cells isolated from the spleen, T cells were treated for 72 h with PBS or with docetaxel (docetaxel 10 nmol/L), in the presence or absence of an LCKi (10 μmol/L, Merck Millipore, Cat. No. 213743-31-8). To evaluate the docetaxel-specificity of our observations, T cells were treated with paclitaxel 10 nmol/L or carboplatin 50 μmol/L for 72 h. […]
Following co-culture, medium was removed, and cultures were washed in PBS to remove T cells. […] Plates were read with a 565 nm wavelength. […]

For a further data set, the system named is Jurkat T cells. The data set is described as follows: MTT assessment of Jurkat T cell survival. The data set is classed as cell-based, human. Conditions: 5 nmol/L, 72 h. Here is the method: Preparation of Jurkat T cells: Jurkat T cells were cultured in Roswell Park Memorial Institute (RPMI) 1640 Medium (Thermo Fisher Scientific, Cat. No. 21875034) containing FBS (10%, Thermo Fisher Scientific, Cat. No. A4766801), Penicillin/streptomycin (10,000 U/ml; Thermo Fisher Scientific, Cat. No. 15140-122), and Ultraglutamine (2 mmol/L, Lonza, Cat. No. BE17-605E/U1). Jurkat T cells were kept in 20% O2, 5% CO2 and at 37 degrees Celsius. Jurkat T cells were treated for 72 h with PBS or with docetaxel (docetaxel 5 nmol/L). Subsequently, Jurkat T cells were collected and washed 3 times in PBS to remove residual chemotherapy.
About 100,000 T cells were seeded per well in a 96-well plate and treated with
increasing doses of docetaxel, paclitaxel, or carboplatin for 72 h. Next, T cells were incubated with Thiazolyl Blue Tetrazolium Bromide (0.5 mg/ml, Sigma Aldrich, Cat. No. 298-93-1) for 3 hr in the dark at 37 degrees Celsius. Subsequently, T cells were incubated for 16 h in the dark in a lysis buffer (40% dimerhylofrmamide, 0.55 mol/L sodium dodecyl sulfate, 2% acetic acid, 8.4 mmol/L HCl in MilliQ water). Plates were read with a 565 nm wavelength.

For `CC(=O)O[C@@]12CO[C@@H]1C[C@H](O)[C@@]1(C)C(=O)[C@H](O)C3=C(C)[C@@H](OC(=O)[C@H](O)[C@@H](NC(=O)OC(C)(C)C)c4ccccc4)C[C@@](O)([C@@H](OC(=O)c4ccccc4)[C@H]21)C3(C)C` [docetaxel], in the data set on MMTV-PyMT organoids, the “T cell-mediated killing in presence or absence of LCKi” value is reported as “TCR-independent increase of T cell-mediated killing”. For the same molecule, in the data set on Jurkat T cells, the “Jurkat T cells survival (MTT)” value is recorded as “did not significantly reduce Jurkat T cells survival”.
